Measured values as given in ChEMBL document CHEMBL5113491, “Discovery of N-benzylarylamide derivatives as novel tubulin polymerization inhibitors capable of activating the Hippo pathway” (Eur J Med Chem, 2022).
Activity calls are given as the source filed them. No cut-off for these calls is given here.

Key:
[1] = system: SGC-7901; experiment: Induction of apoptosis in human SGC-7901 cells assessed as increase in cleaved PARP expression at 15 to 45 nmol/L measured after 48 hrs by Western blot analysis; format: functional, cell-based; conditions: dose 15-45 nmol/L
[2] = system: MCF7; experiment: Antiproliferative activity against human MCF7 cells assessed as inhibition of cell growth measured after 48 hrs by MTT assay; format: functional, cell-based; conditions: MCF7, 48 h
[3] = system: SGC-7901; experiment: Induction of morphological changes in human SGC-7901 cells assessed as cell fragmentation at 15 to 45 nmol/L measured after 48 hrs by bright field microscopic analysis; format: functional, cell-based; conditions: dose 15-45 nmol/L
[4] = Induction of cell apoptosis in human SGC-7901 cells assessed as increase in apoptotic cells at 45 nmol/L measured after 48 hrs by Annexin V/PI staining based flow cytometric analysis (reference value: 9.28%); format: functional
[5] = system: SGC-7901; experiment: Induction of apoptosis in human SGC-7901 cells assessed as decrease in c-IAP1 protein expression measured after 48 hrs by Western blot analysis; format: functional, cell-based; conditions: dose 15-45 nmol/L, DDE = dose-dependent effect
[6] = system: SGC-7901; experiment: Antiproliferative activity against human SGC-7901 cells assessed as inhibition of cell growth at 15 to 45 […] by MTT assay; format: functional, cell-based; conditions: dose 15-45 µmol/L, time <= 72.0 hrs, TDE = time-dependent effect
[7] = system: SGC-7901; experiment: Inhibition of colony formation in human SGC-7901 cells measured after 7 days; format: functional, cell-based; conditions: dose 6-30 nmol/L, time 7.0 day, DDE = dose-dependent effect
[8] = system: TE-1; experiment: Antiproliferative activity against human TE-1 cells assessed as inhibition of cell growth measured after 48 hrs by MTT assay; format: functional, cell-based; conditions: TE-1, 48 h
[9] = system: SGC-7901; experiment: Induction of G2/M phase cell cycle arrest in human SGC-7901 cells assessed as decrease in cyclin A1 expression at 15 to 45 nmol/L measured after 48 hrs by Western blot analysis; format: functional, cell-based; conditions: dose 15-45 nmol/L
[10] = system: MGC-803; experiment: Induction of apoptosis in human MGC-803 cells assessed as decrease in c-IAP1 protein expression measured after 48 hrs by Western blot analysis; format: functional, cell-based; conditions: dose 15-45 nmol/L, DDE = dose-dependent effect
[11] = system: SGC-7901; experiment: Induction of cell cycle arrest in human SGC-7901 cells assessed as increase in G2/M phase cells measured after 24 hrs by flow cytometry; format: functional, cell-based; conditions: dose 15-45 nmol/L, DDE = dose-dependent effect
[12] = system: HCT-116; experiment: Antiproliferative activity against human HCT-116 cells assessed as inhibition of cell growth measured after 48 hrs by MTT assay; format: functional, cell-based; conditions: HCT-116, 48 h
[13] = system: MGC-803; experiment: Induction of morphological changes in human MGC-803 cells assessed as change in concentration of nuclei at 15 to 45 nmol/L measured after 48 hrs by DAPI staining based microscopic analysis; format: functional, cell-based; conditions: dose 15-45 nmol/L
[14] = system: PC-3; experiment: Antiproliferative activity against human PC-3 cells assessed as inhibition of cell growth measured after 48 hrs by MTT assay; format: functional, cell-based; conditions: PC-3, 48 h
[15] = system: SGC-7901; experiment: Induction of G2/M phase cell cycle arrest in human SGC-7901 cells assessed as decrease in cyclin A2 expression at 15 to 45 nmol/L measured after 48 hrs by Western blot analysis; format: functional, cell-based; conditions: dose 15-45 nmol/L
[16] = system: MGC-803; experiment: Downregulation of Axl protein expression in human MGC-803 cells at 15 to 45 nmol/L measured after 48 hrs by Western blot analysis; format: functional, cell-based; conditions: dose 15-45 nmol/L
[17] = molecular target: Tubulin beta (Homo sapiens) (UniProt P68371+Q9H4B7+Q13509+P04350+Q3ZCM7+P07437+Q13885+Q9BVA1+Q9BUF5+A6NNZ2); experiment: Binding affinity to beta-tubulin colchicine binding site in human SGC-7901 cells assessed as inhibition of EBI-beta-tubulin adduct band formation preincubated for 2 hrs followed by EBI addition and measured after 2 hrs by EBI competition based Western blotting analysis; format: cell-based; conditions: dose 1-10 µM, time 4.0 hrs, DDE = dose-dependent effect
[18] = system: MGC-803; experiment: Activation of MST in human MGC-803 cells assessed as increase in MST phosphorylation measured after 48 hrs by Western blot analysis; format: cell-based; conditions: filed as activator, dose 15-45 nmol/L, DDE = dose-dependent effect
[19] = system: MGC-803; experiment: Induction of G2/M phase cell cycle arrest in human MGC-803 cells assessed as decrease in p-cdc2 (T161) expression at 15 to 45 nmol/L measured after 48 hrs by Western blot analysis; format: functional, cell-based; conditions: dose 15-45 nmol/L
[20] = system: SGC-7901; experiment: Activation of MST in human SGC-7901 cells assessed as increase in MST phosphorylation measured after 48 hrs by Western blot analysis; format: cell-based; conditions: filed as activator, dose 15-45 nmol/L, DDE = dose-dependent effect
[21] = system: MGC-803; experiment: Induction of apoptosis in human MGC-803 cells assessed as increase in cleaved PARP expression at 15 to 45 nmol/L measured after 48 hrs by Western blot analysis; format: functional, cell-based; conditions: dose 15-45 nmol/L
[22] = Cytotoxicity against human GES1 cells assessed as reduction in cell viability measured after 48 hrs by MTT assay; format: toxicity, cell-based
[23] = system: SGC-7901; experiment: Induction of morphological changes in human SGC-7901 cells assessed as change in concentration of nuclei at 15 to 45 nmol/L measured after 48 hrs by calcein-AM/PI staining based microscopic analysis; format: functional, cell-based; conditions: dose 15-45 nmol/L
[24] = system: SGC-7901; experiment: Activation of LATS in human SGC-7901 cells assessed as increase in LATS phosphorylation measured after 48 hrs by Western blot analysis; format: cell-based; conditions: filed as activator, dose 15-45 nmol/L, DDE = dose-dependent effect
[25] = system: MGC-803; experiment: Induction of apoptosis in human MGC-803 cells assessed as increase in cleaved caspase 7 expression at 15 to 45 nmol/L measured after 48 hrs by Western blot analysis; format: functional, cell-based; conditions: dose 15-45 nmol/L
[26] = system: MGC-803; experiment: Induction of G2/M phase cell cycle arrest in human MGC-803 cells assessed as decrease in cyclin A2 expression at 15 to 45 nmol/L measured after 48 hrs by Western blot analysis; format: functional, cell-based; conditions: dose 15-45 nmol/L
[27] = system: MGC-803; experiment: Induction of morphological changes in human MGC-803 cells assessed as decrease in density at 15 to 45 nmol/L measured after 48 hrs by bright field microscopic analysis; format: functional, cell-based; conditions: dose 15-45 nmol/L
[28] = system: MGC-803; experiment: Antiproliferative activity against human MGC-803 cells assessed as inhibition of cell growth at 15 to 45 […] by MTT assay; format: functional, cell-based; conditions: dose 15-45 µmol/L, time <= 72.0 hrs, TDE = time-dependent effect
[29] = system: SGC-7901; experiment: Induction of cell apoptosis in human SGC-7901 cells assessed as increase in apoptotic cells measured after 48 hrs by Annexin V/PI staining based flow cytometric analysis; format: functional; conditions: dose 15-45 nmol/L, DDE = dose-dependent effect
[30] = molecular target: T1, Tubulin (Homo sapiens) (UniProt P68371+Q9H4B7+P0DPH7+P68366+Q13509+Q71U36+P04350+Q3ZCM7+P07437+P68363+Q9BQE3+Q6PEY2+Q13885+Q9BVA1+Q9BUF5); experiment: Induction of microtubule disruption in human SGC-7901 cells measured after 48 hrs by DAPI staining based immunofluorescence assay; format: cell-based; conditions: dose 15-45 nmol/L, DDE = dose-dependent effect
[31] = system: ECa-109 cell line; experiment: Antiproliferative activity against human EC109 cells assessed as inhibition of cell growth measured after 48 hrs by MTT assay; format: functional, cell-based; conditions: ECa-109, 48 h
[32] = Induction of cell apoptosis in human MGC-803 cells assessed as increase in apoptotic cells at 45 nmol/L measured after 48 hrs by Annexin V/PI staining based flow cytometric analysis (reference value: 21.96%); format: functional
[33] = system: SGC-7901; experiment: Induction of apoptosis in human SGC-7901 cells assessed as decrease in Bcl-xl protein expression measured after 48 hrs by Western blot analysis; format: functional, cell-based; conditions: dose 15-45 nmol/L, DDE = dose-dependent effect
[34] = system: KYSE-450; experiment: Antiproliferative activity against human KYSE-450 cells assessed as inhibition of cell growth measured after 48 hrs by MTT assay; format: functional, cell-based; conditions: KYSE-450, 48 h
[35] = molecular target: T1, Tubulin (Homo sapiens); experiment: Induction of microtubule disruption in human MGC-803 cells measured after 48 hrs by DAPI staining based immunofluorescence assay; format: cell-based; conditions: dose 15-45 nmol/L, DDE = dose-dependent effect

In the case of `C/C=C/C(=O)N(Cc1ccc(OC)c(O)c1)c1cc(OC)c(OC)c(OC)c1`, the Activity [1] is reported as “Active”, the IC50 [2] is reported as 67 nM and the Activity [3] is reported as “Active”. For the same molecule, the Activity [4] was 63.51%, the Activity [5] was “Dde” and the Activity [6] was “Tde”. The inhibition [7] was “Dde”, the IC50 [8] was 94 nM and the Activity [9] was “Active”. The Activity [10] was “Dde”, the Activity [11] was “Dde” and the IC50 [12] was 55 nM. The Activity [13] was “Active”, the IC50 [14] was 55 nM and the Activity [15] was “Active”. The Activity [16] was “Active”, the Activity [17] was “Dde” and the Activity [18] was “Dde”. For the same molecule, the Activity [19] was “Active”, the Activity [20] was “Dde” and the Activity [21] was “Active”. For the same molecule, the IC50 at 48 h [22] was 768 nM, the Activity [23] was “Active” and the Activity [24] was “Dde”. The Activity [25] was “Active”, the Activity [26] was “Active” and the Activity [27] was “Active”. The Activity [28] was “Tde”, the Activity [29] was “Dde” and the Activity [30] was “Dde”. The IC50 [31] was 85 nM, the Activity [32] was 76.08% and the Activity [33] was “Dde”. For the same molecule, the IC50 [34] was 67 nM and the Activity [35] was “Dde”.
